Measured values reported in patent US9732151B2, “Biomarkers for TSLP treatment” (Merck Sharp & Dohme Corp., priority 2011, dated 2017).

Assays:
[1] = system: biomarker genes in skin of calcipotriol treated mice; experiment: Vitamin D (calcipotriol) induced skin inflammation, real-time PCR of skin mRNA, +/- anti-TSLP; format: in vivo, mice (Balb/c); settings: calcipotriol 2 nmol/ear daily, skin at day 8 (FIG. 5)
Method: (§1) Vitamin D Induced Skin Inflammation: The vitamin D analogue, calcipotriol (Tocris, Ellisville, Mo.), was dissolved in ethanol and was applied daily to both sides of the ears at a final concentration of 2 nmol/ear. Control animals were given ethanol only. Ear swelling was measured daily using an engineer's pressure gauge (Peacock, Japan) and blood was collected. The blood was spun at 10.000 rpm for 5 minutes to separate the serum, which was frozen at −80 C. until analyzed by ELISA. Calcipotriol applications were stopped on day 8 (Balb/c mice), ears were harvested and fixed in 10% formalin for pathological evaluation or frozen directly in liquid nitrogen for mRNA extraction.
Neutralization Experiments: mice were treated with 0.1, 0.4, 1, 4, 12, 40 and 120 mgs per kg (mpk) of a rat anti-mouse TSLP antibody (designated “22E5”) subcutaneously (s.c.) one day (d−1) prior to VitD3 treatment. Control mice received isotype antibody at 4 and 40 mpk. The mice were sacrificed at day 8.
Real-time PCR was conducted on mRNA extracted from skin tissue of mice treated with calcipotriol in the absence or the presence of an antagonistic anti-TSLP antibody or an isotype control

[2] = system: biomarker genes in skin of TSLPR KO mice; experiment: Calcipotriol skin inflammation in TSLPR KO mice, real-time PCR of skin mRNA; format: in vivo; settings: calcipotriol vs ethanol
Method: as §1, with “Mice: Six- to eight-week-old Balb/c were obtained from Jackson Labs (Bar Harbour, Me.). TSLPR KO mice were obtained from Dr. W. Leonard, NIH, Bethesda, Md. (Al Shami et al., J. Exp. Med. 200:159-168 (2004). Age-matched males were used for the time-course study and females for two efficacy studies. Vitamin” for “Vitamin”, “-80” for “−80”, “extraction. […] Similarly, real-time PCR was conducted on mRNA extracted from skin tissue of TSLPR KO mice treated with either ethanol (vehicle control) or calcipotriol.” for “extraction.”

[3] = system: biomarker proteins in BAL fluid of HDMA-challenged monkeys; experiment: BAL fluid biomarkers (western blot, ELISA) in HDMA-challenged monkeys before and after corticosteroid therapy; format: in vivo, cynomolgus macaques (Macaca fascicularis)
Method: Western blot analysis of BAL fluid samples: Western blot analysis was performed on BAL fluid samples. 200 uL of each BAL fluid sample was acetone precipitated in 4 volumes of cold acetone overnight and resuspended in 1× NUPAGE® (chemical preparations used for life sciences research) LDS sample loading buffer. An equal amount was separated on a 4-12% NUPAGE® (chemical preparations used for life sciences research) gels, and gels were electroblotted onto PVDF membranes overnight at 10V in NUPAGE® (chemical preparations used for life sciences research) transfer buffer. Membranes were blocked in 5% fat-free milk in TBS/T (10mM TrisHC1 pH 7.5, 100 mM NaC1, 0.1% TWEEN® 20 (polysorbate 20)) for 1 hour and incubated with specific antibodies according to the manufacturer's instructions in 1% milk in TBS/T for another 2 hours. Blots were incubated with HRP-labeled secondary antibodies (chicken anti-goat) IgG, R&D Systems, Minneapolis, Minn. or donkey anti-rabbit Ig-G, GE Healthcare, Piscataway, N.J.) in 1% milk in TB S/T for another hour and detection was performed with ECL+(GE Healthcare). Primary antibodies used included anti-mouse LCN2, anti-mouse sICAM-1, anti-human sICAM-1 (for monkey studies), anti-mouse GP-39, anti-mouse YM1, and anti-mouse pIgR (all from R&D Systems); and anti-mouse UG, anti-mouse AMCase, anti-human AMCase (for monkey studies), anti-mouse CLCA3, and anti-human CLCA1 (for monkey studies) (all from Santa Cruz Biotechnology, Santa Cruz, Calif.). […] After autoradiography visualization, membranes were dried and scanned on a Typhoon 9400 (GE Healthcare) for ECL+(457 nm excitation and 520BP40 emission). Image analysis was conducted using ImageQuant v5.2 (GE Healthcare) and band intensity reported as sum of pixel values above background.
At this time, animals were challenged with nebulized HDMA (1 to 2500 AU/mL for 4 minutes) at a concentration that induced an early asthmatic response, defined as a 100% increase in lung resistance, 40% decrease in dynamic compliance, or decline in arterial oxygen saturation to ≦70%. Airway inflammation and reactions to nebulized histamine and methacholine 24 hours after allergen challenge were measured periodically to confirm chronic asthmatic responses. Wardle-Fick methods were used to obtain BAL fluid. BAL cells were then separated from the fluid phase. […] In corticosteroid treatments experiments, animals were challenged with HDMA and BAL fluid was collected 24 hours later (“Pre”).

HDMA-challenged monkeys = experiment: Asthma symptoms in HDMA-induced asthma in nonhuman primates after corticosteroid treatment; format: in vivo, cynomolgus macaques (Macaca fascicularis); settings: high-dose corticosteroids for 2 weeks, data not shown
From the text: House mite allergen (HDMA)-induced asthma in nonhuman primates: Juvenile macaques (Cynomolgus fascicularis, 30 to 42 months of age) were purchased from Alphagenesis (Yemassee, S.C.). Animals were sensitized to HDMA over a 7.5 month period by intraperitoneal injection of 312 AU Dermatophagoides pteronyssinus extract (Greer Laboratories, Lenoir, N.C.) absorbed to IMJECT® (reagents used in connection with enhancing immune responses) Alum (Pierce, Rockford, Ill.) administered every two weeks until HDMA-specific IgE titers approached levels in control allergic serum, and then at 4-week intervals until aeroallergen challenge. At this time, animals were challenged with nebulized HDMA (1 to 2500 AU/mL for 4 minutes) at a concentration that induced an early asthmatic response, defined as a 100% increase in lung resistance, 40% decrease in dynamic compliance, or decline in arterial oxygen saturation to ≦70%. Airway inflammation and reactions to nebulized histamine and methacholine 24 hours after allergen challenge were measured periodically to confirm chronic asthmatic responses. Wardle-Fick methods were used to obtain BAL fluid. BAL cells were then separated from the fluid phase. Mass spectrometry compared BAL fluid from sensitized animals before and after HDMA challenge. In corticosteroid treatments experiments, animals were challenged with HDMA and BAL fluid was collected 24 hours later (“Pre”). Animals then received weekly doses of methylprednisolone succinate (4.5 mg/kg intramuscularly) for two weeks, followed by a single dose of methylprednisolone acetate (10 mg/kg […].) one week later at the time of allergen challenge. BAL fluid was collected 24 hours following challenge (“Post”). Animal husbandry was conducted under USDA guidelines. All protocols were approved by the Institutional Animal Care and Use Committee of East Carolina University.

[4] = system: biomarker genes in lung tissue of TSLP Tg mice; experiment: qRT-PCR of biomarker genes in lung tissue, steroid-treated TSLP Tg mice; format: in vivo
Method: TSLP Tg mice, on the BALB/c background, were obtained from the laboratory of Steven Ziegler. Zhou et al., Nat. Immunol. 6:1047-53 (2005). Non-transgenic littermates served as control mice. BALB/c mice (for ovalbumin (OVA)-induced asthma experiments) were purchased from the Jackson Laboratory. The standard model of OVA-induced asthma described below was used. In dexamethasone-treatment experiments, 12 week-old TSLP Tg mice were injected i.p. daily for 2 weeks with 2 mg/kg dexamethasone 21-phosphate disodium salt (Sigma) in sterile PBS, or with sterile PBS alone as a control. Colonies were maintained in a specific pathogenic-free environment.
Harvest of murine BAL fluid, BAL cells, and lung tissue: BAL fluid was isolated by washing the lung (through the trachea) with 1mL of PBS. Lavage fluid was kept on ice and centrifuged at 400g for 5 min. The supernatant was frozen for cytokine analysis, and the cell pellet was resuspended in 1mL of PBS for total viable cell count by Vi-CELL ([…]) and cell differentials by cytospin. Slides were air-dried, fixed with 95% ethanol, and stained with Wright-Giemsa (Sigma-Aldrich). A minimum of 200 cells were counted under the microscope per slide for cell differentials. The postcaval lung lobe and BAL cells were collected and snap-frozen in liquid nitrogen for qRT-PCR analysis as described previously for tissue (Chan et al., J. Exp. Med. 203:2577-87 (2006)) and below for BAL cells. The single left lung lobe was excised for histology and clinical scoring as described below.
(§2) mRNA isolation from BAL cells and qRT-PCR: Total RNA was isolated from BAL cells using the RNeasy method (Qiagen, Valencia, Calif.) and reverse-transcribed using WT-OVATION ® (chemicals, assays, and reagents for nucleic acid sequence amplification, sequencing and sequence analysis and detection) Pico System (NuGen Technologies, San Carlos Calif.). Primers were designed using Primer Express software (Applied Biosystem, Foster City, Calif.) or obtained commercially from Applied Biosystems (ABI). qRT-PCR was performed on 10 ng of cDNA from each sample as described previously. Chan et al., J. Exp. Med. 203:2577-87 (2006).

[5] = system: biomarkers in BAL fluid or cell mRNA; experiment: Table VIII summary: biomarkers down with steroids in BAL fluid or BAL cell mRNA; format: in vivo, mice
From the text: as §2
Western blot analysis of BAL fluid samples: Western blot analysis was performed on BAL fluid samples. 200 uL of each BAL fluid sample was acetone precipitated in 4 volumes of cold acetone overnight and resuspended in 1× NUPAGE® (chemical preparations used for life sciences research) LDS sample loading buffer. An equal amount was separated on a 4-12% NUPAGE® (chemical preparations used for life sciences research) gels, and gels were electroblotted onto PVDF membranes overnight at 10V in NUPAGE® (chemical preparations used for life sciences research) transfer buffer. Membranes were blocked in 5% fat-free milk in TBS/T (10mM TrisHC1 pH 7.5, 100 mM NaC1, 0.1% TWEEN® 20 (polysorbate 20)) for 1 hour and incubated with specific antibodies according to the manufacturer's instructions in 1% milk in TBS/T for another 2 hours. Blots were incubated with HRP-labeled secondary antibodies (chicken anti-goat) IgG, R&D Systems, Minneapolis, Minn. or donkey anti-rabbit Ig-G, GE Healthcare, Piscataway, N.J.) in 1% milk in TB S/T for another hour and detection was performed with ECL+(GE Healthcare). Primary antibodies used included anti-mouse LCN2, anti-mouse sICAM-1, anti-human sICAM-1 (for monkey studies), anti-mouse GP-39, anti-mouse YM1, and anti-mouse pIgR (all from R&D Systems); and anti-mouse UG, anti-mouse AMCase, anti-human AMCase (for monkey studies), anti-mouse CLCA3, and anti-human CLCA1 (for monkey studies) (all from Santa Cruz Biotechnology, Santa Cruz, Calif.). Polyclonal anti-mouse Reg3γ was generated at Schering-Plough Biopharma. After autoradiography visualization, membranes were dried and scanned on a Typhoon 9400 (GE Healthcare) for ECL+(457 nm excitation and 520BP40 emission). Image analysis was conducted using ImageQuant v5.2 (GE Healthcare) and band intensity reported as sum of pixel values above background.
ELISAs: Mouse LCN2, GP-39, sICAM-1, and YM1 proteins were quantified using QUANTIKINE® (in vitro immunoassay kits) or DUOSET® (biological reagents for use in research applications to identify cytokines by immunoassay) ELISA kits (R&D Systems) using a Vmax spectrophotometer with SoftMax Pro software (Molecular Devices); mouse IL-4, IL-5, and IL-13 were measured using a Luminex 100 machine with LINCOPLEX® (panels for taking immunoassay measurements and testing cytokine and endocrine hormones) multiplex kits (Millipore) and analyzed with MasterPlex software (Miraibio). Monkey YKL-40 was quantified via ELISA (Quidel), analyzed as above.

In the case of `C=C1/C(=C\C=C2/CCC[C@]3(C)[C@@H]([C@H](C)/C=C/[C@@H](O)C4CC4)CC[C@@H]23)C[C@@H](O)C[C@@H]1O` [calcipotriol], the “upregulation of EAR11, MMP12, LCN2, YM1, YM2, YKL-40, Reg3 g, PGLYRP1, CD44 mRNA in skin” value [1] is reported as ≥ 2 fold and the “EAR11, MMP12, and YM2 mRNA in skin” value [2] is reported as “not upregulated”.

For `C[C@H]1C[C@@H]2[C@H]([C@@H](O)C[C@@]3(C)[C@H]2CC[C@]3(O)C(=O)COC(=O)CCC(=O)O)[C@@]2(C)C=CC(=O)C=C12` [corticosteroid, methylprednisolone succinate], the “disease biomarkers in BAL fluid” value ([3]; HDMA-challenged monkeys, 2 weeks of corticosteroid therapy (FIG. 4)) was “Reduction”, the “expression of LCN2, UG, pIgR, PAP, and CLCA1 in BAL fluid” value ([3]; Post vs Pre corticosteroid, trending downward, data not shown) was “not significantly reduced” and the “GP-39 in BAL fluid” value ([3]; by ELISA, Post vs Pre corticosteroid (FIG. 4B)) was “significantly reduced”. For the same compound, the “AMCase, sICAM-1, CLCA1 in BAL fluid” value ([3]; by western blot, Post vs Pre corticosteroid (FIG. 4A)) was “significantly reduced”, the airway eosinophil recruitment (HDMA-challenged monkeys) was “reduced” and the asthma symptoms (HDMA-challenged monkeys) was “reduced”. For the same compound, the lung function (HDMA-challenged monkeys) was “improved”.

`C[C@@H]1C[C@H]2[C@@H]3CCC4=CC(=O)C=C[C@]4(C)[C@@]3(F)[C@@H](O)C[C@]2(C)[C@@]1(O)C(=O)CO` [Steroids, dexamethasone] was tested, and the “Down with Steroids (Lung Tissue): CLCA3” value [4] was “— (a dash indicates a biomarker not reduced upon treatment)”, the “Down with Steroids (Lung Tissue): Chi3l4 (YM2)” value [4] was “— (a dash indicates a biomarker not reduced upon treatment)” and the “Down with Steroids (Lung Tissue): ECP (Ear11)” value [4] was “— (a dash indicates a biomarker not reduced upon treatment)”. For the same compound, the “Down with Steroids (Lung Tissue): FCGBP” value [4] was “— (a dash indicates a biomarker not reduced upon treatment)”, the “Down with Steroids (Lung Tissue): ICAM-1” value [4] was “— (a dash indicates a biomarker not reduced upon treatment)” and the “Down with Steroids (Lung Tissue): LCN2” value [4] was “— (a dash indicates a biomarker not reduced upon treatment)”. For the same compound, the “Down with Steroids (Lung Tissue): PGLYRP1” value [4] was “— (a dash indicates a biomarker not reduced upon treatment)”, the “Down with Steroids (Lung Tissue): RETNLβ” value [4] was “— (a dash indicates a biomarker not reduced upon treatment)” and the “Down with Steroids (Lung Tissue): Reg3γ” value [4] was “— (a dash indicates a biomarker not reduced upon treatment)”. For the same compound, the “Down with Steroids (BAL fluid or cell mRNA): AMCase (Chia)” value [5] was “— (a dash indicates a biomarker not reduced upon treatment)”, the “Down with Steroids (BAL fluid or cell mRNA): ECP (Ear11)” value [5] was “— (a dash indicates a biomarker not reduced upon treatment)” and the “Down with Steroids (BAL fluid or cell mRNA): LTF” value [5] was “— (a dash indicates a biomarker not reduced upon treatment)”. The “Down with Steroids (BAL fluid or cell mRNA): MMP12” value [5] was “— (a dash indicates a biomarker not reduced upon treatment)” and the “Down with Steroids (BAL fluid or cell mRNA): Reg3γ” value [5] was “— (a dash indicates a biomarker not reduced upon treatment)”.
